Test results as given in patent publication US20100099897A1, “STABLE ANHYDROUS CRYSTALLINE DOCETAXEL AND METHOD FOR THE PREPARATION THEREOF” (HANMI PHARM. CO., LTD., priority 2007, published 2010).

Legend:
[1] = Stability under a high temperature/humidity condition (HPLC purity after aging); assay type: physicochemical; conditions: for Purity after 1 week / Purity after 2 weeks / Purity after 4 weeks / Initial purity / Purity after 8 weeks: HPLC; for Initial purity: before aging
Experimental: The long-term storage stabilities of anhydrous crystalline forms of docetaxel prepared in Examples 1, 4, 5, and 6, respectively were compared with that of docetaxel trihydrate prepared according to the method of U.S. Pat. No. 6,022,985 by subjecting sample thereof to aging under a high temperature/humidity condition (60±2° C.; 75±5% relative humidity). The amounts of the original compound in each sample after 1, 2, 4 and 8 weeks were determined by high performance liquid chromatography (HPLC).

[2] = Storage for 7 days at 40° C. under a relative humidity of 25% to 50%; assay type: physicochemical; conditions: comparable condition: 7 days, relative humidity 25% to 50%
[3] = 60±2° C., 75±5% relative humidity

Structure (SMILES)	Purity after 1 week [1, 3] [%]	Purity after 2 weeks [1, 3] [%]	Purity after 4 weeks [1, 3] [%]	Storage stability under a high temperature/humidity condition (in words) ([1]; 60±2° C., 75±5% relative humidity, up to 8 weeks)	Initial purity [1] [%]	Dehydration during storage [2]	Purity after 8 weeks [1, 3] [%]
CC(=O)O[C@@]12CO[C@@H]1C[C@H](O)[C@@]1(C)C(=O)[C@H](O)C3=C(C)[C@@H](OC(=O)[C@H](O)[C@@H](NC(=O)OC(C)(C)C)c4ccccc4)C[C@@](O)([C@@H](OC(=O)c4ccccc4)[C@H]21)C3(C)C [Docetaxel trihydrate, docetaxel trihydrate, reference compound]	99.3	99.0	98.7	rapid degradation	99.4	at least 50%	–
CC(=O)O[C@@]12CO[C@@H]1C[C@H](O)[C@@]1(C)C(=O)[C@H](O)C3=C(C)[C@@H](OC(=O)[C@H](O)[C@@H](NC(=O)OC(C)(C)C)c4ccccc4)C[C@@](O)([C@@H](OC(=O)c4ccccc4)[C@H]21)C3(C)C [Example 4, docetaxel]	99.8	99.7	99.6	–	99.8	–	99.5
CC(=O)O[C@@]12CO[C@@H]1C[C@H](O)[C@@]1(C)C(=O)[C@H](O)C3=C(C)[C@@H](OC(=O)[C@H](O)[C@@H](NC(=O)OC(C)(C)C)c4ccccc4)C[C@@](O)([C@@H](OC(=O)c4ccccc4)[C@H]21)C3(C)C [Example 6, docetaxel]	99.7	99.7	99.6	–	99.7	–	99.5

Next, values leading:

Purity after 1 week [1, 3] [%]	Purity after 2 weeks [1, 3] [%]	Purity after 4 weeks [1, 3] [%]	Storage stability under a high temperature/humidity condition (in words) ([1]; 60±2° C., 75±5% relative humidity, up to 8 weeks)	Initial purity [1] [%]	Dehydration during storage [2]	Purity after 8 weeks [1, 3] [%]	Structure (SMILES)
99.8	99.8	99.7	–	99.8	–	99.6	CC(=O)O[C@@]12CO[C@@H]1C[C@H](O)[C@@]1(C)C(=O)[C@H](O)C3=C(C)[C@@H](OC(=O)[C@H](O)[C@@H](NC(=O)OC(C)(C)C)c4ccccc4)C[C@@](O)([C@@H](OC(=O)c4ccccc4)[C@H]21)C3(C)C [Example 1, docetaxel]
99.7	99.7	99.6	–	99.7	–	99.6	CC(=O)O[C@@]12CO[C@@H]1C[C@H](O)[C@@]1(C)C(=O)[C@H](O)C3=C(C)[C@@H](OC(=O)[C@H](O)[C@@H](NC(=O)OC(C)(C)C)c4ccccc4)C[C@@](O)([C@@H](OC(=O)c4ccccc4)[C@H]21)C3(C)C [Example 5, docetaxel]
